Data as given in article PMC9720346, “Suppression of amyloid-β fibril growth by drug-engineered polymorph transformation” (The Journal of Biological Chemistry, 2022).

Tests used:
Aβ40 = target: T1, Aβ40 (Homo sapiens, UniProt P05067); assay: Thioflavin T (ThT) fluorescence assay of Aβ40 fibrillization; type: biochemical; conditions: 50 μM Aβ40, bexarotene 17 and 50 μM, 35 μM ThT, 40 mM sodium phosphate pH 7.4, 37 °C, ex 442/em 488 nm, 15 h
T1 construct: host or cells: E. coli BL21(DE3)
Description: To monitor the evolution of fibrillization and the overall impact of bexarotene, we employed the fluorescence intensity emitted at 488 nm by the dye thioflavin T (ThT) in the presence of Aβ sheets, which is expected to scale the total amyloid mass ([42]).
The stock solution of ThT was prepared by dissolving ThT (Sigma–Aldrich) in ethanol (Decon Labs) and filtering through […] polyethersulfone syringe filter. […] For control experiment, ammonium acetate solution in a volume equivalent to the peptides volume was added to the growth buffer instead of Aβ40 peptides. […] The ThT fluorescence signal was measured at 37 °C (with mixing every 5 min) every 15 min with excitation and emission at 442 and 488 nm, respectively, for a period of 15 h using SpectraMax Gemini EM Microplate Reader (Molecular Devices). The sigmoid curves were obtained by subtracting the […] of the control and normalizing all the data points to their maximum value.
Thioflavin T (ThT) fluorescence assay. […] The concentration was determined by measuring the absorbance at 416 nm using the extinction coefficient of 26.6 mM^-1 cm^-1. […] The ThT fluorescence signal was measured at 37 °C (with mixing every 5 minutes) every 15 minutes with excitation and emission at 442 nm and 488 nm, respectively, for a time period of 15 hours using SpectraMax Gemini EM Microplate Reader (Molecular Devices). […]

Aβ40 peptides = target: T2, Aβ40 peptides (Homo sapiens, UniProt P05067); assay: Complexation of Aβ40 with bexarotene (UV absorbance titration at 280 nm); type: binding; conditions: 156 μM Aβ40 in ammonium acetate titrated with 20 aliquots of 142 μM bexarotene; absorbance at 280 nm vs sum of individual absorbances
T2 construct: host or cells: E. coli BL21(DE3)
Description: This addition was repeated 20 times.
Complexation of Aβ40 with bexarotene. To determine the extinction coefficient of bexarotene at 280 nm, we measured the absorbance of bexarotene at 14 gradually decreasing concentrations (Fig. S2A). The stock solution of bexarotene (0.2 mM) was diluted in ammonium acetate to achieve the desired concentrations. Then, the correlation between absorbance and bexarotene concentration was plotted and the extinction coefficient was obtained from the slope of the best linear regression fit (ε280 = 10370 ± 83 M^-1 cm^-1).
This addition was repeated 20 times, and at each step, a spectrum was collected using DU 800 Spectrophotometer (Beckman Coulter).

[1] = target: T3, Aβ40 fibrils nucleated in the absence of bexarotene (normal fibrils) (Homo sapiens, UniProt P05067); assay: Time-resolved in situ AFM: growth rate of normal Aβ40 fibrils after adding bexarotene; type: biochemical; conditions: 3 μM Aβ40, bexarotene 0.1, 0.5 and 1.0 μM, 27 °C, about 30 measurements per concentration
T3 construct: host or cells: E. coli BL21(DE3)
Description: We deposit fibrils preformed in the absence of bexarotene on mica and monitor the growth of the fibril tips along the fibril axis with respect to immobile reference points (Fig. 2B) in Aβ40 solutions with known concentrations. We evaluate the fibril growth rate as the slope of the time correlation of the fibril tip displacement (Fig. 2C) ([41]). […] Fibril growth comprises association of peptide chains to fibril tips.
To prepare samples for AFM growth rate measurements, 2 μl of second-generation normal (or bexarotene) fibrils was added to the fibril growth buffer. Urea (Sigma–Aldrich) was also added to the solution, to a final concentration of 1 M, if needed based on the experiments. The diluted fibril solution then was sonicated (6 W output) for 2 min with 15 s intervals on ice and was kept at 27 °C for at least 15 min to equilibrate the temperature. Then Aβ40 peptides were added to the fibril solution at a desired final concentration, and the total volume of the solution was adjusted to 1 ml. […]
To study the effect of bexarotene on normal and bexarotene fibril growth rates (Figs. 2D and 5D), first, a fibril suspension at 3 μM Aβ40 peptide concentration was prepared as described previously, without bexarotene, and the fibril growth was monitored with AFM in tapping mode for 15 to 30 min. […]

[2] = target: T4, Aβ40 fibrils with structure imposed by bexarotene (bexarotene fibrils) (Homo sapiens, UniProt P05067); assay: Time-resolved in situ AFM: growth rate of bexarotene fibrils after adding bexarotene; type: biochemical; conditions: 3 μM Aβ40, 1 μM bexarotene, 27 °C
T4 construct: host or cells: E. coli BL21(DE3)
Description: To prepare samples for AFM growth rate measurements, 2 μl of second-generation normal (or bexarotene) fibrils was added to the fibril growth buffer. Urea (Sigma–Aldrich) was also added to the solution, to a final concentration of 1 M, if needed based on the experiments. The diluted fibril solution then was sonicated (6 W output) for 2 min with 15 s intervals on ice and was kept at 27 °C for at least 15 min to equilibrate the temperature. Then Aβ40 peptides were added to the fibril solution at a desired final concentration, and the total volume of the solution was adjusted to 1 ml.
Multimode atomic force microscope (Nanoscope VIII or IV; Bruker) in tapping mode was used to monitor the growth of fibrils. To collect images, 500 μl of the prepared sample was injected into the AFM liquid cell over freshly cut mica (Ted Pella, Inc) attached to a 15 mm metal disk (Ted Pella, Inc), and to avoid any leakage, an O-ring was inserted firmly to the liquid cell. The temperature in the liquid cell reached equilibrium of 27.0 ± 0.1 °C within 15 min, higher than room temperature (ca. 22 °C), because of heating by the AFM scanner and laser ([69], [70], [71]). Height, amplitude, and phase images were collected in image sizes ranged from 2 μm × 2 μm to 8 μm × 8 μm, and scan rates range between 3 and 3.5 s^−1 in most images. […]

Aβ42 = conditions: cited from earlier work

T2 sequence (P05067 671-711): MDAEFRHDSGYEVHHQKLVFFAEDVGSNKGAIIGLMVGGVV
T3 sequence (P05067 671-711): as above
T1 sequence (P05067 671-711): as above
T4 sequence (P05067 671-711): as above

initial period of negligible ThT fluorescence (fibril nucleation delay) (Aβ40): suppresses Aβ40 fibril nucleation | binding of bexarotene to Aβ40 monomers (complex formation) (Aβ40 peptides): does not perceptibly bind | average growth rate of normal fibrils after adding bexarotene [1]: does not modify the average growth rates | growth rate of bexarotene fibrils after adding bexarotene [2]: does not inhibit or promote the growth
SMILES: C=C(c1ccc(C(=O)O)cc1)c1cc2c(cc1C)C(C)(C)CCC2(C)C [bexarotene]
binding of bexarotene to Aβ42 (Aβ42): undetectable binding
